Assay results reported in US20160137714A1 (Thrasos Innovation, Inc., priority 2014, published 2016).
“And” between values parts separate entries of the source, which are not always exact repeats. Equal entries are not always repeated. Where two headings read alike, the source gives them in different places. One block for each compound: values may come before it. Positions of bridges follow the written chain, without caps; N, C: chain ends. Non-standard residues stand in square brackets, D forms with d. Residues, ends and D or L forms follow the SMILES beside them.

Columns and labels:
[1] = Pharmacokinetics of GPR-405 given at 1 mg/kg sc in CD1 mice; assay type: in vivo, mouse
Method: The study described herein involved single (mouse) or multiple (rat) blood collections after test article administration. Test articles are given by oral (PO), intravenous (IV), subcutaneous (SC) or intraperitoneal (IP) routes. All animals have a five day acclimatization period before dosing. Body weights are recorded prior to dosing. For mouse PK, 3 animals per group per time point are used (terminal bleed). For rats, multiple blood samplings per animal (adequately spaced in time) are taken. At the end of the study, all animals are euthanized by CO2 and final blood sample was collected via cardiac puncture.
Preparations are performed under a laminar flow hood using clean procedures. The formulations are kept at in a refrigerator set to maintain 4° C. before use. The dose volume for each animal is based on the most recent body weight measurement.
for PO administration, animal has either restricted access to food until the next day (12 h) before dosing or are allowed free access to food (depending on whether the PK will be done on fasted or fed animals). In all cases, animals has access to water ad libidum. PO dosing is done by gavage using a curved gavage needle (with rounded tip). All animals are observed for few seconds after injection to make sure there are no side effects. For IV administration, dosing (mice and rat) is done by the tail vein. Compound administration is done by slow (15-60 sec) bolus or by slow IV infusion (up to 1 h) using a calibrated syringe pump. For subcutaneous (dorsal region) and intraperitoneal injections, dosing is done with the appropriate needle and volume as per IACUC guidelines. GPR-405 was administered once by SC injection to each animal in the test group using a hypodermic needle attached to a syringe. No dose was administered to control animals.
Sampling is done via the tail, jugular or saphenous vein. Typical time for blood collection for PK are Pre, 5, 15, 30 minutes, 1 h, 2 h, 4 h, 8 h, 24 h. For mice, animals are terminated at each collection (cardiac puncture post-euthanasia). For rats, 200 μl are collected at each time point (max 3 time points per rat in 24 h). Plasma harvested from blood is mixed with 8.5% phosphoric acid (2% v/v of plasma). All plasma samples collected are stored in a freezer, set to maintain −80° C. until bioanalysis. At necropsy, tissues, organs and/or biological fluid are collected, as needed, for analysis. Urine collection is done using metabolic cages when required.
A stock solution of the test article is prepared at 250 μg/mL in DMSO. This solution is quantitatively added to blank mouse or rat plasma to generate a calibration curve. The linear range is from 0.25 to 250 ng/mL. A 175 μL aliquot of plasma is removed from each calibrant tube and processed using solid phase extraction (SPE). Study samples are first diluted with blank control mouse or rat plasma, and 175 μL is aliquoted for processing using SPE. An internal standard working solution (ISWS) is added to each calibrant and study sample (GPR-227 at 100 ng/mL in water). Plasma proteins are precipitated with 175 μL of methanol with 0.5% acetic acid (v/v). After centrifugation at 14,800 RPM for 10 minutes, a 300 μL aliquot of supernatant is diluted in water with 4% phosphoric acid (v/v). The entire diluted sample is extracted by SPE using a Waters Oasis HLB 96-well μElution plate. Samples are washed twice using a solution of acidified water (0.1% TFA, v/v) and 15% MeOH in water (v/v). Purified extracts are eluted into a 96-well collection plate using 40 μL of elution solvent. Standards and study samples are injected onto a Thermo Q-exactive LC-MS/MS system. Chromatographic separation is performed using a reversed-phase C18 HPLC column (Waters CSH C18, 50×2.1 mm, 2.5 μm). Analyte and internal standard are detected using the targeted selected ion monitoring (tSIM) scan mode. […]

[2] = THR-123 i.v. in rodents: half-life and metabolites in plasma and kidney tissue; assay type: in vivo, rat
Source text: The main metabolite VII results from a proteolytic cleavage between positions 14 and 15 (VII in FIG. 2). The structure of each metabolite was confirmed by synthesis and analytical characterization.

[3] = mouse, in vivo, 1 mg/kg sc in CD1 mice

AUMC(0-t) ([1]; 1 mg/kg sc in CD1 mice): 196073 ng*min^2/ml
CL*F ([1]; 1 mg/kg sc in CD1 mice): 3.83 mL/min
CL/kg*F ([1]; 1 mg/kg sc in CD1 mice): 120 mL/min/kg
KeI ([1]; 1 mg/kg sc in CD1 mice): 0.04 min⁻¹
Tmax ([1]; 1 mg/kg sc in CD1 mice): 5 min
Vd*F ([1]; 1 mg/kg sc in CD1 mice): 172.28 mL
Vss ([1]; 1 mg/kg sc in CD1 mice): 90.22 mL
Terminal T1/2 ([1]; 1 mg/kg sc in CD1 mice, based on terminal decay rate): 31.21 min
K′ (terminal decay rate) ([1]; 1 mg/kg sc in CD1 mice, log-linear fit of 30, 60, 240 min): 0.022 min⁻¹
half-life ([1]; mouse, in vivo, sc, 1 mg/kg, 1 mg/kg sc in CD1 mice, based on terminal decay rate, read-out: Terminal T1/2): ~30 min
half-life ([1]; mouse, in vivo, sc, 1 mg/kg, 1 mg/kg sc in CD1 mice, read-out: Biological T1/2 (overall half-life)): ~16 min
Tmax ([1]; mouse, in vivo, sc, 1 mg/kg, 1 mg/kg sc in CD1 mice, read-out: Tmax): < 5 min
AUC(0-inf) [1, 3]: 142 ng·h/mL
AUC(0-t) [1, 3]: 142 ng·h/mL
Cmax [1, 3]: 504 ng/mL
MRT [1, 3]: 23.1 min
bioavailability ([1]; mouse, in vivo, sc, mice, preliminary data): ~60%
level at 5 min ([1]; mouse, plasma, 1 mg/kg sc, CD1 mice, 5 min, read-out: Mean Concentration): 504 ng/mL
level at 0.25 h ([1]; mouse, plasma, 1 mg/kg sc, CD1 mice, 15 min, read-out: Mean Concentration): 117 ng/mL
level at 0.5 h ([1]; mouse, plasma, 1 mg/kg sc, CD1 mice, 30 min, read-out: Mean Concentration): 68.8 ng/mL
level at 1 h ([1]; mouse, plasma, 1 mg/kg sc, CD1 mice, 60 min, read-out: Mean Concentration): 15.9 ng/mL
level at 4 h ([1]; mouse, plasma, 1 mg/kg sc, CD1 mice, 240 min, read-out: Mean Concentration): 0.4 ng/mL
Final Concentration (individual mouse) ([1]; plasma, 1 mg/kg sc, CD1 mice, 30 min, 1 mg/kg): 49.0 ng/mL and 88.6 ng/mL
Final Concentration (individual mouse) ([1]; plasma, 1 mg/kg sc, CD1 mice, 60 min, 1 mg/kg): 23.0 ng/mL and 11.9 ng/mL and 12.8 ng/mL
Final Concentration (individual mouse) ([1]; plasma, 1 mg/kg sc, CD1 mice, 240 min): 0.4 ng/mL
Structure (SMILES): CC(C)C[C@@H]1NC(=O)[C@H](C(C)C)NC(=O)[C@H](CCC(N)=O)NC(=O)[C@H](CO)NC(=O)[C@H](CO)NC(=O)[C@H](CC(N)=O)NC(=O)[C@H](Cc2ccccc2)NC(=O)[C@H](Cc2ccc(O)cc2)NC(=O)[C@H](Cc2ccc(O)cc2)NC(=O)[C@@H](N)CSSC[C@@H](C(=O)N[C@@H](CCCCN)C(=O)N[C@@H](CCCNC(=N)N)C(=O)N[C@H](Cc2ccc(O)cc2)C(=O)N[C@@H](CCCNC(=N)N)C(=O)N[C@@H](CO)C(=O)O)NC1=O [GPR-405, Cys-Tyr-Tyr-Phe-Asn-Ser-Ser-Gln-Val-Leu-Cys-Lys-Arg-(D)Tyr-Arg-Ser] (H-CYYFNSSQVLCKR[dY]RS-OH; disulfide 1-11)
clearance compared with renal clearance ([1]; 1 mg/kg sc in CD1 mice, mouse GFR approximately 10 ml/min/kg): about ten times greater than renal clearance
Final Concentration (individual mouse) ([1]; plasma, 1 mg/kg sc, CD1 mice, 5 min, 1 mg/kg): 596.4 ng/ml and 411.9 ng/ml and 62.4 (outlier) ng/ml
Final Concentration (individual mouse) ([1]; plasma, 1 mg/kg sc, CD1 mice, 15 min, 1 mg/kg): 114.2 ng/mL and 118.3 ng/mL and 118.4 ng/mL

half-life in plasma and kidney tissue ([2]; administered intravenously to rodents, FIG. 1): short half-life
metabolites identified in the kidney ([2]; rat kidney tissue, ten minutes post i.v. administration, FIG. 2): metabolites VI, VII, VIII and IX
Structure (SMILES): CC(C)C[C@@H]1NC(=O)[C@H](C(C)C)NC(=O)[C@H](CC(N)=O)NC(=O)[C@H](CO)NC(=O)[C@H](CO)NC(=O)[C@H](CC(=O)O)NC(=O)[C@H](CC(=O)O)NC(=O)[C@H](Cc2ccccc2)NC(=O)[C@H](Cc2ccc(O)cc2)NC(=O)[C@@H](N)CSSC[C@@H](C(=O)N[C@@H](CCCCN)C(=O)N[C@@H](CCCCN)C(=O)N[C@@H](Cc2ccc(O)cc2)C(=O)N[C@@H](CCCNC(=N)N)C(=O)N[C@@H](CO)C(=O)O)NC1=O [THR-123, Cys-Tyr-Phe-Asp-Asp-Ser-Ser-Asn-Val-Leu-Cys-Lys-Lys-Tyr-Arg-Ser] (H-CYFDDSSNVLCKKYRS-OH; disulfide 1-11)
